Assay results published in patent US20250084087A1, “BICYCLIC HETEROCYCLES AS MRGPRX2 ANTAGONISTS” (Incyte Corporation, priority 2023, published 2025).

Tests used:
Format in all cases: cell-based
MRGPRX2 [1] = molecular target: T1, MRGPRX2 (Homo sapiens, UniProt Q96LB1); assay: MRGPRX2 IP1 HTRF assay; parameters: host or cells: CHO-K1; conditions: CHO-K1 cells stably expressing human MRGPRX2; IP1 accumulation; agonist Cortistatin 14 1 μM
T1 sequence (Q96LB1 1-330): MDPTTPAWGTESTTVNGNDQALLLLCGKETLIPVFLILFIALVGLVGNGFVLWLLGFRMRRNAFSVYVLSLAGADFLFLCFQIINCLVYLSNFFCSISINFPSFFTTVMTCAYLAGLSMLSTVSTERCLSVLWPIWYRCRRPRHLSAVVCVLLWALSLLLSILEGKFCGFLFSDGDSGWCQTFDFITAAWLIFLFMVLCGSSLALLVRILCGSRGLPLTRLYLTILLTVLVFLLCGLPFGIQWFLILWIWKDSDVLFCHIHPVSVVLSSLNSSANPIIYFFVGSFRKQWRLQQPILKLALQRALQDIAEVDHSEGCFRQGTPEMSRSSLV
Summary of the method: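 CHO-K1 cells stably expressing human MRGPRX2, preincubated with compound 1 h at 37 °C, then stimulated with 1 μM Cortistatin 14 for 1 h. IP1 measured by HTRF against standard curve, normalized to DMSO and reference antagonist controls; IC50 from 3- or 4-parameter Hill fit.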

MRGPRX2 [2] = molecular target: T1, MRGPRX2; assay: MRGPRX2 FLIPR calcium mobilization assay; parameters: host or cells: CHO-K1; conditions: CHO-K1 cells stably expressing human MRGPRX2; Ca2+ release; agonist Cortistatin-14 at EC80
Method: Example A. MRGPRX2 FLIPR Calcium Mobilization Assay
Chinese hamster ovary (CHO-K1) cells stably expressing human MRGPRX2 were purchased from Genescript (Piscataway, NJ). The cells were maintained in culture medium (Ham's F-12K) containing 10% (v/v) FBS, 200 μg/mL Zeocin, 100 units/mL penicillin G and 100 μg/mL streptomycin (Life Technologies, Carlsbad, CA). For the assay, the cells were harvested and resuspended with culture medium without Zeocin before plating at 8000 cells per well in 20 μL in 384-well black clear bottom cell culture plates (VWR, Radnor, PA). After 24 hour culture at 37° C. and 5% CO2, the cells were loaded with 20 μL/well of calcium dye (FLIPR Calcium 6 Assay Kit, Molecular Devices, San Jose, CA) diluted in loading buffer (1× Hank's Balanced Salt Solution (HBSS), 5 mM probenecid, 20 mM 4-(2-hydroxyethyl)-1-piperazineethanesulfonic acid (HEPES), pH 7.4, VWR, Radnor, PA) followed with 45 min. incubation at 37° C. and 40 min. at r.t. in the dark. Cells were then treated with the addition of 10 uL/well test compounds with a range of increasing concentrations diluted in the assay buffer (1×HBSS, 20 mM HEPES, pH 7.4, VWR, Radnor, PA) with FLIPR Penta (Molecular Devices. San Jose, CA) and incubated for 30 min. at r.t. Ca^2+ release was measured with FLIPR Penta with 10 seconds basal fluorescence measurement, then 12.5 μL of 5× agonist Cortistatin-14 (Tocris, Minneapolis, MN) at final concentration corresponding to the EC80 were added followed with continued fluorescence signal monitoring for an additional 110 seconds. The base line adjusted (median of first 10s base line) max value of the Relative Fluorescence Unit (RFU) was plotted against compound concentrations. Wells with no compound were served as the positive controls, and wells with high concentration of reference antagonist were used as negative controls. IC50 curves were globally fitted with 3- or 4-parameter Hill equation in a Genedata Screener (Genedata Basel, Switzerland).

MRGPRX2 [3] = molecular target: T1, MRGPRX2; assay: MRGPRX2 β-Arrestin recruitment assay (PathHunter); parameters: host or cells: CHO-K1 (PathHunter); conditions: PathHunter CHO-K1 MRGPRX2 β-Arrestin cell line; agonist Cortistatin 14 0.25 μM
Summary of the method: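 CHO-K1 PathHunter cells co-expressing ProLink-tagged MRGPRX2 and enzyme-acceptor-tagged β-arrestin were preincubated with compound 1 h at 37° C., then stimulated with cortistatin-14 (0.25 μM final) for 90 min. Enzyme-complementation luminescence read after 1 h detection; data normalized to DMSO and reference antagonist, IC50 from 3- or 4-parameter Hill fit.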

SMILES	IC50 (MRGPRX2 [1]) [nM]	IC50 (MRGPRX2 [2]) [nM]	IC50 (MRGPRX2 [3]) [nM]
FC(F)(F)c1cn2c(NCC3(c4ccc(Br)cc4)CCC3)cccc2n1 [Example 38, N-((1-(4-Bromophenyl)cyclobutyl)methyl)-2-(trifluoromethyl)imidazo[1,2-a]pyridin-5-amine]	0.1 to 100	0.1 to 100	–
NC(=O)N1CC(CNc2cccc3nc(C(F)(F)F)cn23)(c2ccc(F)cc2)C1 [Example 35, 3-(4-Fluorophenyl)-3-(((2-(trifluoromethyl)imidazo[1,2-a]pyridin-5-yl)amino)methyl)azetidine-1-carboxamide]	0.1 to 100	0.1 to 100	–
O=C(N1CCC(CNc2cccc3nc(C(F)(F)F)cn23)(c2ccccc2)CC1)N1CC(F)(F)C1 [Example 19, (3,3-Difluoroazetidin-1-yl)(4-phenyl-4-(((2-(trifluoromethyl)imidazo[1,2-a]pyridin-5-yl)amino)methyl)piperidin-1-yl)methanone]	0.1 to 100	0.1 to 100	–
NC(=O)c1cccc(N2CC(CNc3cc(C(F)(F)F)nc4cc(C(F)(F)F)nn34)(c3ccc(F)cc3)C2)n1 [Example 47, 6-(3-(((2,5-Bis(trifluoromethyl)pyrazolo[1,5-a]pyrimidin-7-yl)amino)methyl)-3-(4-fluorophenyl)azetidin-1-yl)picolinamide]	–	0.1 to 100	0.1 to 100
N#CCCNC1CCC(CNc2cc(C(F)(F)F)nc3cc(Br)nn23)(c2ccccc2)CC1 (centres unmarked) [Example 81, 3-((4-(((2-Bromo-5-(trifluoromethyl)pyrazolo[1,5-a]pyrimidin-7-yl)amino)methyl)-4-phenylcyclohexyl)amino)propanenitrile]	–	0.1 to 100	0.1 to 100
CNC(=O)N1CCC(CNc2cc(C(F)(F)F)nc3cc(C(F)(F)F)nn23)(c2ccccc2)CC1 [Example 15, 4-(((2,5-Bis(trifluoromethyl)pyrazolo[1,5-a]pyrimidin-7-yl)amino)methyl)-N-methyl-4-phenylpiperidine-1-carboxamide]	0.1 to 100	0.1 to 100	–
CN1CCC(CNc2cc(C(F)(F)F)nc3cc(C(F)(F)F)nn23)(c2ccccc2)CC1 [Example 17, N-((1-Methyl-4-phenylpiperidin-4-yl)methyl)-2,5-bis(trifluoromethyl)pyrazolo[1,5-a]pyrimidin-7-amine]	0.1 to 100	0.1 to 100	–
CNC1CCC(CNc2cc(C(F)(F)F)nc3cc(Br)nn23)(c2ccccc2)CC1 (centres unmarked) [Example 83, 2-Bromo-N-((4-(methylamino)-1-phenylcyclohexyl)methyl)-5-(trifluoromethyl)pyrazolo[1,5-a]pyrimidin-7-amine]	–	0.1 to 100	0.1 to 100
CNC(=O)N1CCC(CNc2cc(C)cc3nc(C(F)(F)F)cn23)(c2ccccc2)CC1 [Example 28, N-Methyl-4-(((7-methyl-2-(trifluoromethyl)imidazo[1,2-a]pyridin-5-yl)amino)methyl)-4-phenylpiperidine-1-carboxamide]	0.1 to 100	0.1 to 100	–
NS(=O)(=O)N1CC(CNc2cccc3nc(C(F)(F)F)cn23)(c2ccc(F)cc2)C1 [Example 34, 3-(4-Fluorophenyl)-3-(((2-(trifluoromethyl)imidazo[1,2-a]pyridin-5-yl)amino)methyl)azetidine-1-sulfonamide]	0.1 to 100	0.1 to 100	–
CN(C)c1cc(NCC2(c3ccc(F)cc3)CN(S(N)(=O)=O)C2)n2nc(C(F)(F)F)cc2n1 [Example 105, 3-(((5-(Dimethylamino)-2-(trifluoromethyl)pyrazolo[1,5-a]pyrimidin-7-yl)amino)methyl)-3-(4-fluorophenyl)azetidine-1-sulfonamide]	–	0.1 to 100	–
CC(=O)N(C)C1CCC(CNc2cc(C(F)(F)F)nc3cc(Br)nn23)(c2ccccc2)CC1 (centres unmarked) [Example 85, N-(4-(((2-Bromo-5-(trifluoromethyl)pyrazolo[1,5-a]pyrimidin-7-yl)amino)methyl)-4-phenylcyclohexyl)-N-methylacetamide]	–	0.1 to 100	0.1 to 100
CNC(=O)N1CCC(CNc2cccc3nc(C(F)(F)F)nn23)(c2ccccc2)CC1 [Example 13, N-Methyl-4-phenyl-4-(((2-(trifluoromethyl)-[1,2,4]triazolo[1,5-a]pyridin-5-yl)amino)methyl)piperidine-1-carboxamide]	0.1 to 100	0.1 to 100	–
O=C(CN1CCC1)N1CCC(CNc2cc(C(F)(F)F)nc3cc(Br)nn23)(c2ccc(F)cc2)CC1 [Example 60, 2-(Azetidin-1-yl)-1-(4-(((2-bromo-5-(trifluoromethyl)pyrazolo[1,5-a]pyrimidin-7-yl)amino)methyl)-4-(4-fluorophenyl)piperidin-1-yl)ethan-1-one]	–	0.1 to 100	0.1 to 100
FC(F)(F)c1cc(NCC2(c3ccccc3)CC=CC2)n2nc(Br)cc2n1 [Example 82, 2-Bromo-N-((1-phenylcyclopent-3-en-1-yl)methyl)-5-(trifluoromethyl)pyrazolo[1,5-a]pyrimidin-7-amine]	–	0.1 to 100	0.1 to 100
OC1CCC(CNc2cc(C(F)(F)F)nc3cc(Br)nn23)(c2ccccc2)C1 (racemic) [Example 84, 3-(((2-Bromo-5-(trifluoromethyl)pyrazolo[1,5-a]pyrimidin-7-yl)amino)methyl)-3-phenylcyclopentan-1-ol]	–	0.1 to 100	0.1 to 100
Cc1cc2nc(I)cc(NCC3(c4ccccc4)CCOC3)n2n1 (centres unmarked) [Example 78, 5-Iodo-2-methyl-N-((3-phenyltetrahydrofuran-3-yl)methyl)pyrazolo[1,5-a]pyrimidin-7-amine]	–	100 to 1000	–
CN1CC[C@@H]1C(=O)N1CCC(CNc2cc(C(F)(F)F)nc3cc(C(F)(F)F)nn23)(c2ccc(F)cc2)CC1 [Example 50, (R)-(4-(((2,5-Bis(trifluoromethyl)pyrazolo[1,5-a]pyrimidin-7-yl)amino)methyl)-4-(4-fluorophenyl)piperidin-1-yl)(1-methylazetidin-2-yl)methanone]	–	0.1 to 100	0.1 to 100
N#Cc1cc2nc(C(F)(F)F)cc(NCC3(n4cccn4)CN(S(N)(=O)=O)C3)n2n1 [Example 95, 3-(((2-Cyano-5-(trifluoromethyl)pyrazolo[1,5-a]pyrimidin-7-yl)amino)methyl)-3-(1H-pyrazol-1-yl)azetidine-1-sulfonamide]	–	0.1 to 100	–
O=C(NC1CC1)N1CC(CNc2cc(C(F)(F)F)nc3cc(C(F)F)nn23)(c2ccc(F)cc2)C1 [Example 63, N-Cyclopropyl-3-(((2-(difluoromethyl)-5-(trifluoromethyl)pyrazolo[1,5-a]pyrimidin-7-yl)amino)methyl)-3-(4-fluorophenyl)azetidine-1-carboxamide]	–	0.1 to 100	0.1 to 100
Cn1cc(N2CC(CNc3cc(C(F)(F)F)nc4cc(C(F)(F)F)nn34)(c3ccc(F)cc3)C2)nn1 [Example 46, N-((3-(4-Fluorophenyl)-1-(1-methyl-1H-1,2,3-triazol-4-yl)azetidin-3-yl)methyl)-2,5-bis(trifluoromethyl)pyrazolo[1,5-a]pyrimidin-7-amine]	–	0.1 to 100	0.1 to 100
Cn1nc(N2CCC(CNc3cc(C(F)(F)F)nc4cc(C(F)(F)F)nn34)(c3ccc(F)cc3)CC2)ccc1=O [Example 40, 6-(4-(((2,5-Bis(trifluoromethyl)pyrazolo[1,5-a]pyrimidin-7-yl)amino)methyl)-4-(4-fluorophenyl)piperidin-1-yl)-2-methylpyridazin-3(2H)-one]	–	0.1 to 100	0.1 to 100
